These results are taken from ChEMBL document CHEMBL4616723, “Discovery of Antibacterials That Inhibit Bacterial RNA Polymerase Interactions with Sigma Factors” (J Med Chem, 2020).

Type in all cases: functional
For one assay, the system named is Klebsiella pneumoniae. The assay is described as follows: Antibacterial activity against Klebsiella pneumoniae ATCC 700603 after 20 hrs by CLSI based-broth microdilution method. Particulars: ATCC 700603, 20 h.
The subject of the next assay is Acinetobacter baumannii. The experiment in a line: Antibacterial activity against Acinetobacter baumannii ATCC 19606 after 20 hrs by CLSI based-broth microdilution method. The note with it: ATCC 19606 = CIP 70.34 = JCM 6841, 20 h.
The next assay deals with Streptococcus pneumoniae. The experiment in a line: Antibacterial activity against Streptococcus pneumoniae ATCC 49619 after 20 hrs by CLSI based-broth microdilution method. The note with it: ATCC 49619, 20 h.
A further assay has as its system Pseudomonas aeruginosa. The experiment in a line: Antibacterial activity against Pseudomonas aeruginosa ATCC 27853 after 20 hrs by CLSI based-broth microdilution method. Particulars: ATCC 27853, 20 h.
The next assay has as its system Escherichia coli. The assay is described as follows: Antibacterial activity against Escherichia coli ATCC 25922 after 20 hrs by CLSI based-broth microdilution method. Particulars: ATCC 25922, 20 h.
A further assay concerns Enterobacter cloacae. The experiment in a line: Antibacterial activity against Enterobacter cloacae ATCC 13047 after 20 hrs by CLSI based-broth microdilution method. Particulars: subsp. cloacae ATCC 13047, 20 h.

≈ marks a conversion by molar mass, not a printed value. A value given as a limit tells only on which side of the number the result lay.

`O=C(O)c1ccccc1C(=O)c1ccc(Nc2ccc(Cl)c(Cl)c2)c([N+](=O)[O-])c1`: the MIC against Klebsiella pneumoniae is over 256 µg/mL; against Acinetobacter baumannii, over 256 µg/mL; against Streptococcus pneumoniae it was 64 µg/mL (≈ 148 µM); in the assay with Pseudomonas aeruginosa, over 256 µg/mL; against Escherichia coli it was over 256 µg/mL; with Enterobacter cloacae it was over 256 µg/mL.

`Nc1ccccc1Sc1ccc(C(=O)Nc2ccccc2C(=O)O)cc1[N+](=O)[O-]`: the MIC in the assay with Klebsiella pneumoniae is over 256 µg/mL; against Acinetobacter baumannii it was over 256 µg/mL; with Streptococcus pneumoniae it was 64 µg/mL (≈ 156 µM); against Pseudomonas aeruginosa, over 256 µg/mL; with Escherichia coli, over 256 µg/mL; in the assay with Enterobacter cloacae, over 256 µg/mL.

In the case of `O=C(O)c1ccc(N2CCOCC2)c(NCc2ccc(Sc3ccc(Cl)c(Cl)c3)c([N+](=O)[O-])c2)c1`, the MIC with Klebsiella pneumoniae was over 256 µg/mL; against Acinetobacter baumannii, over 256 µg/mL; with Streptococcus pneumoniae, 16 µg/mL (≈ 29.9 µM); in the assay on Pseudomonas aeruginosa, over 256 µg/mL; in the assay with Escherichia coli, over 256 µg/mL; against Enterobacter cloacae, over 256 µg/mL.

In the case of `O=C(O)c1ccccc1C(=O)c1ccc(Nc2ccccc2)c([N+](=O)[O-])c1`, the MIC against Klebsiella pneumoniae is over 256 µg/mL; against Acinetobacter baumannii, over 256 µg/mL; against Streptococcus pneumoniae, 256 µg/mL (≈ 707 µM); against Pseudomonas aeruginosa, over 256 µg/mL; in the assay on Escherichia coli, over 256 µg/mL; in the assay on Enterobacter cloacae, over 256 µg/mL.

Consider `COc1ccc(Nc2ccc(C(=O)c3ccccc3C(=O)O)cc2[N+](=O)[O-])cc1`, for which the MIC against Klebsiella pneumoniae, in the assay with Acinetobacter baumannii, in the assay with Streptococcus pneumoniae, in the assay with Pseudomonas aeruginosa, in the assay on Escherichia coli and against Enterobacter cloacae was over 256 µg/mL throughout.

Turning to `Nc1ccccc1Nc1ccc(C(=O)c2ccccc2C(=O)O)cc1[N+](=O)[O-]`, the MIC with Klebsiella pneumoniae, with Acinetobacter baumannii, in the assay with Streptococcus pneumoniae, in the assay with Pseudomonas aeruginosa, in the assay on Escherichia coli and against Enterobacter cloacae was over 256 µg/mL each time.

In the case of `O=C(O)c1ccccc1C(=O)c1ccc(Nc2cccc(Cl)c2)c([N+](=O)[O-])c1`, the MIC was over 256 µg/mL in the assay with Klebsiella pneumoniae; over 256 µg/mL against Acinetobacter baumannii; 256 µg/mL (≈ 645 µM) with Streptococcus pneumoniae; over 256 µg/mL against Pseudomonas aeruginosa; over 256 µg/mL against Escherichia coli; over 256 µg/mL in the assay on Enterobacter cloacae.

With `Cc1occc1Sc1ccc(C(=O)c2ccccc2C(=O)O)cc1[N+](=O)[O-]`, the MIC with Klebsiella pneumoniae is over 256 µg/mL; in the assay with Acinetobacter baumannii it was over 256 µg/mL; against Streptococcus pneumoniae, 256 µg/mL (≈ 668 µM); with Pseudomonas aeruginosa, over 256 µg/mL; with Escherichia coli, over 256 µg/mL; against Enterobacter cloacae, over 256 µg/mL.

`Cc1ccc(Sc2ccc(C(=O)c3ccccc3C(=O)O)cc2[N+](=O)[O-])c(C)c1`: the MIC with Klebsiella pneumoniae is over 256 µg/mL; with Acinetobacter baumannii, over 256 µg/mL; with Streptococcus pneumoniae, 32 µg/mL (≈ 78.5 µM); with Pseudomonas aeruginosa, over 256 µg/mL; against Escherichia coli it was over 256 µg/mL; against Enterobacter cloacae, over 256 µg/mL.

Turning to `COc1ccccc1Sc1ccc(C(=O)c2ccccc2C(=O)O)cc1[N+](=O)[O-]`, the MIC in the assay with Klebsiella pneumoniae was over 256 µg/mL; against Acinetobacter baumannii, over 256 µg/mL; against Streptococcus pneumoniae, 128 µg/mL (≈ 313 µM); with Pseudomonas aeruginosa, over 256 µg/mL; against Escherichia coli, over 256 µg/mL; in the assay on Enterobacter cloacae it was over 256 µg/mL.

Consider `O=C(O)c1cc(NCc2ccc(Sc3ccc(Cl)c(Cl)c3)c([N+](=O)[O-])c2)ccc1Cl`, for which the MIC against Klebsiella pneumoniae was over 256 µg/mL; in the assay with Acinetobacter baumannii it was over 256 µg/mL; with Streptococcus pneumoniae, 256 µg/mL (≈ 529 µM); in the assay on Pseudomonas aeruginosa, over 256 µg/mL; against Escherichia coli it was over 256 µg/mL; with Enterobacter cloacae, over 256 µg/mL.

As to `N#Cc1ccccc1NCc1ccc(Sc2ccc(Cl)c(Cl)c2)c([N+](=O)[O-])c1`, the MIC in the assay on Klebsiella pneumoniae, in the assay on Acinetobacter baumannii, in the assay on Streptococcus pneumoniae, in the assay on Pseudomonas aeruginosa, in the assay with Escherichia coli and with Enterobacter cloacae was over 256 µg/mL each time.

Regarding `O=C(O)c1ccccc1C(=O)c1ccc(Nc2nccs2)c([N+](=O)[O-])c1`, the MIC in the assay on Klebsiella pneumoniae, in the assay on Acinetobacter baumannii, against Streptococcus pneumoniae, against Pseudomonas aeruginosa, in the assay with Escherichia coli and against Enterobacter cloacae was over 256 µg/mL each time.

With `O=C(O)c1cccc(NC(=O)c2ccc(Sc3ccc(Cl)c(Cl)c3)c([N+](=O)[O-])c2)c1`, the minimum inhibitory concentration (MIC) was over 256 µg/mL against Klebsiella pneumoniae; over 256 µg/mL in the assay with Acinetobacter baumannii; 256 µg/mL (≈ 553 µM) against Streptococcus pneumoniae; over 256 µg/mL against Pseudomonas aeruginosa; over 256 µg/mL against Escherichia coli; over 256 µg/mL with Enterobacter cloacae.

Take `O=C(O)c1ccccc1C(=O)c1ccc(N2CCCCC2)c([N+](=O)[O-])c1`: the minimum inhibitory concentration (MIC) against Klebsiella pneumoniae is over 256 µg/mL; against Acinetobacter baumannii, over 256 µg/mL; in the assay on Streptococcus pneumoniae it was 256 µg/mL (≈ 722 µM); against Pseudomonas aeruginosa, over 256 µg/mL; with Escherichia coli, over 256 µg/mL; with Enterobacter cloacae, over 256 µg/mL.

For `O=[N+]([O-])c1cc(CNc2cccc(CO)c2)ccc1Sc1ccc(Cl)c(Cl)c1`, the minimum inhibitory concentration (MIC) in the assay on Klebsiella pneumoniae, against Acinetobacter baumannii, in the assay on Streptococcus pneumoniae, against Pseudomonas aeruginosa, against Escherichia coli and against Enterobacter cloacae was over 256 µg/mL throughout.

As for `O=C(O)c1ccccc1C(=O)c1ccc(Sc2ccc(Cl)cc2Cl)c([N+](=O)[O-])c1`, the MIC is over 256 µg/mL against Klebsiella pneumoniae; over 256 µg/mL with Acinetobacter baumannii; 32 µg/mL (≈ 71.4 µM) against Streptococcus pneumoniae; over 256 µg/mL in the assay with Pseudomonas aeruginosa; over 256 µg/mL with Escherichia coli; over 256 µg/mL against Enterobacter cloacae.

With `Nc1ccccc1Sc1ccc(CNc2ccc(C(=O)O)cc2)cc1[N+](=O)[O-]`, the MIC against Klebsiella pneumoniae is over 256 µg/mL; with Acinetobacter baumannii it was over 256 µg/mL; in the assay on Streptococcus pneumoniae, 256 µg/mL (≈ 647 µM); against Pseudomonas aeruginosa, over 256 µg/mL; against Escherichia coli, over 256 µg/mL; against Enterobacter cloacae it was over 256 µg/mL.

For the compound `CC(C)Nc1cccc(Sc2ccc(C(=O)c3ccccc3C(=O)O)cc2[N+](=O)[O-])c1`, the MIC in the assay with Klebsiella pneumoniae was over 256 µg/mL; with Acinetobacter baumannii it was over 256 µg/mL; against Streptococcus pneumoniae it was 32 µg/mL (≈ 73.3 µM); with Pseudomonas aeruginosa, over 256 µg/mL; in the assay with Escherichia coli, over 256 µg/mL; against Enterobacter cloacae, over 256 µg/mL.

As to `O=C(O)c1ccccc1C(=O)c1ccc(NCc2ccccc2)c([N+](=O)[O-])c1`, the MIC in the assay on Klebsiella pneumoniae is over 256 µg/mL; against Acinetobacter baumannii, over 256 µg/mL; against Streptococcus pneumoniae it was 256 µg/mL (≈ 680 µM); in the assay on Pseudomonas aeruginosa it was over 256 µg/mL; with Escherichia coli, over 256 µg/mL; with Enterobacter cloacae, over 256 µg/mL.

For the compound `O=C(O)c1ccc(F)c(NCc2ccc(Sc3ccc(Cl)c(Cl)c3)c([N+](=O)[O-])c2)c1`, the MIC in the assay with Klebsiella pneumoniae, with Acinetobacter baumannii, with Streptococcus pneumoniae, with Pseudomonas aeruginosa, against Escherichia coli and against Enterobacter cloacae was over 256 µg/mL in each case.

Take `O=C(O)c1ccccc1C(=O)c1ccc(Nc2cccc(CO)c2)c([N+](=O)[O-])c1`: the MIC with Klebsiella pneumoniae, against Acinetobacter baumannii, in the assay with Streptococcus pneumoniae, with Pseudomonas aeruginosa, in the assay with Escherichia coli and against Enterobacter cloacae was over 256 µg/mL throughout.

As to `NC1CCCCC1Nc1ccc(C(=O)c2ccccc2C(=O)O)cc1[N+](=O)[O-]` (centres undefined), the MIC against Klebsiella pneumoniae, against Acinetobacter baumannii, against Streptococcus pneumoniae, in the assay on Pseudomonas aeruginosa, with Escherichia coli and against Enterobacter cloacae was over 256 µg/mL in each case.

Regarding `O=C(O)c1ccccc1C(=O)c1ccc(NCc2ccccc2F)c([N+](=O)[O-])c1`, the MIC against Klebsiella pneumoniae was over 256 µg/mL; in the assay with Acinetobacter baumannii, over 256 µg/mL; in the assay on Streptococcus pneumoniae it was 256 µg/mL (≈ 649 µM); against Pseudomonas aeruginosa, over 256 µg/mL; with Escherichia coli, over 256 µg/mL; with Enterobacter cloacae, over 256 µg/mL.
